Among the data in patent US20240391882A1 (Mirati Therapeutics, Inc., priority 2023, published 2024) are IC50 values, retold here.

Format in all cases: cell-based
For test [1], the system named is pAKT in T47D (PI3Kα H1047R mutant) cells. Kind of test: Inhibition of pAKT (alphaLISA Surefire Ultra AKT 1/2/3 pS473) in T47D cells. The settings on record: Homo sapiens; T47D (PI3Kα H1047R mutant) cells, 24 hr compound incubation, alphaLISA pS473; read-out: T47D (H1047R) pAKT 24 hr (IC50). Summed up:
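AlphaLISA read-out of AKT pS473 in lysates after roughly 24 h compound exposure at 37° C in HBSS. Ten concentrations, 1:4 dilutions from a 10.4 μm top dose. Percent of control uses alpelisib at 3.125 μm as background and DMSO as vehicle; four-parameter curve gives IC50.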
In general terms: Bead proximity is the source of the signal in Alpha formats.

For test [2], the system named is T47D (PI3Kα H1047R mutant) cells. The experiment in a line: Cell viability (CellTiter-Glo 2.0) in T47D cells. The settings on record: Homo sapiens, T47D, 72 h, approximately 72 hours. Summed up:
(§1)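 IC50 values derive from four-parameter fits of CellTiter-Glo luminescence expressed as percent of vehicle control. Cells (T47D or SKBR3) were plated at 1000/well the day before dosing and incubated about 72 h at 37° C with a 10-point, 1:4 series starting at 10 μm.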

Test [3] relates to SKBR3 (PI3Kα wild type) cells. Kind of test: Cell viability (CellTiter-Glo 2.0) in SKBR3 cells. The settings on record: Homo sapiens, SK-BR-3; SKBR3 (PI3Kα wild type) cells, approximately 72 hours, CellTiter-Glo 2.0; read-out: SKBR3 (WT) Viability IC50. Summed up:
as §1
On the technique in general: Cellular ATP, detected with luciferase, serves as a proxy for viable cell number.

Broadly, the IC50 is the concentration that gives 50% inhibition. Turning to `C[C@@H](Nc1ccc(Cl)nc1C(=O)O)c1cc(F)cc2nc(C#N)c(N3CCC(F)(F)CC3)nc12` [Example 26, (R)-6-chloro-3-((1-(2-cyano-3-(4,4-difluoropiperidin-1-yl)-7-fluoroquinoxalin-5-yl)ethyl)amino)picolinic acid], the IC50 in test [1] was 1.8 nM; in test [2], 51.5 nM; in test [3], 9800 nM.
In the case of `C[C@@H](Nc1ccc(Cl)nc1C(=O)O)c1cc(Cl)cc2nc(C#N)c(N3CCC(F)(F)CC3)nc12` [Example 34, (R)-6-chloro-3-((1-(7-chloro-2-cyano-3-(4,4-difluoropiperidin-1-yl)quinoxalin-5-yl)ethyl)amino)picolinic acid], the figures for the half-inhibitory concentration (IC50) in test [1], in test [2] and in test [3] were 6.2 nM, 48.2 nM and above 10000 nM, respectively.
For `Cc1cc([C@@H](C)Nc2ccc(Cl)nc2C(=O)O)c2nc(N3CC4(C3)CC(F)(F)C4)c(C#N)nc2c1` [Example 255, (R)-6-chloro-3-((1-(2-cyano-3-(6,6-difluoro-2-azaspiro[3.3]heptan-2-yl)-7-methylquinoxalin-5-yl)ethyl)amino)picolinic acid], the IC50 is 3.7 nM in test [1], 170 nM in test [2] and above 10000 nM in test [3].
For `Cc1cc([C@@H](C)Nc2ccc(Cl)nc2C(=O)O)c2nc(N3CCC[C@H]([C@H](C)O)C3)c(C#N)nc2c1` [Example 261A, 6-chloro-3-(((R)-1-(2-cyano-3-((S)-3-((S)-1-hydroxyethyl)piperidin-1-yl)-7-methylquinoxalin-5-yl)ethyl)amino)picolinic acid], the IC50 in test [1] is 3.2 nM; in test [2], 79 nM; in test [3], above 10000 nM.
Regarding `Cc1cc([C@@H](C)Nc2ccc(Cl)nc2C(=O)O)c2nc(N3CC4(CCCO4)C3)c(C#N)nc2c1` [Example 252, (R)-6-chloro-3-((1-(2-cyano-7-methyl-3-(5-oxa-2-azaspiro[3.4]octan-2-yl)quinoxalin-5-yl)ethyl)amino)picolinic acidS], the IC50 in test [1] is 2.7 nM; in test [2], 119 nM; in test [3] it was 5260 nM.
`Cc1cc([C@@H](C)Nc2ccc(Cl)nc2C(=O)O)c2nc(N3CCC4(CC3)C(F)(F)C4(F)F)c(C#N)nc2c1` [Example 82, (R)-6-chloro-3-((1-(2-cyano-7-methyl-3-(1,1,2,2-tetrafluoro-6-azaspiro[2.5]octan-6-yl)quinoxalin-5-yl)ethyl)amino)picolinic acid]: the IC50 was 4.5 nM in test [1], 121 nM in test [2] and 5030 nM in test [3].
The matching figures for `Cc1cc([C@@H](C)Nc2ccc(Cl)nc2C(=O)O)c2nc(-c3ccc(=O)n(C)c3)c(C#N)nc2c1` [Example 223, (R)-6-chloro-3-((1-(2-cyano-7-methyl-3-(1-methyl-6-oxo-1,6-dihydropyridin-3-yl)quinoxalin-5-yl)ethyl)amino)picolinic acid]: 20 nM, 1030 nM and above 10000 nM.
The matching figures for `Cc1cc([C@@H](C)Nc2ccc(Cl)nc2C(=O)O)c2nc(N3CCC(F)(F)[C@@H](CO)C3)c(C#N)nc2c1` (single isomer, unassigned) [Example 234A]: 2.8 nM, 73 nM and above 10000 nM.
For the molecule `CO[C@H](C)C1CCN(c2nc3c([C@@H](C)Nc4ccc(Cl)nc4C(=O)O)cc(C)cc3nc2C#N)CC1` (single isomer, unassigned) [Example 195A], the results for the IC50 in test [1], in test [2] and in test [3] were 0.47 nM, 84.1 nM and above 10000 nM, respectively.
The matching figures for `Cc1cc([C@@H](C)Nc2ccc(Cl)nc2C(=O)O)c2nc(N3CCc4c(ccn(C)c4=O)C3)c(C#N)nc2c1` [Example 221, (R)-6-chloro-3-((1-(2-cyano-7-methyl-3-(6-methyl-5-oxo-3,4,5,6-tetrahydro-2,6-naphthyridin-2(1H)-yl)quinoxalin-5-yl)ethyl)amino)picolinic acid]: 0.88 nM, 147 nM and above 10000 nM.
The matching figures for `Cc1cc([C@@H](C)Nc2ccc(Cl)nc2C(=O)O)c2nc(N3C[C@H]4COC[C@@H]4C3)c(C#N)nc2c1` (single isomer, unassigned) [Example 229A]: 0.55 nM, 16.6 nM and 3080 nM.
Regarding `Cc1cc([C@@H](C)Nc2ccc(Cl)nc2C(=O)O)c2nc(N3CCC[C@H]([C@@H](C)O)C3)c(C#N)nc2c1` [Example 261B, 6-chloro-3-(((R)-1-(2-cyano-3-((S)-3-((R)-1-hydroxyethyl)piperidin-1-yl)-7-methylquinoxalin-5-yl)ethyl)amino)picolinic acid], the IC50 in test [1] was 2.6 nM; in test [2] it was 98 nM; in test [3] it was above 10000 nM.
The matching figures for `Cc1cc([C@@H](C)Nc2ccc(Cl)nc2C(=O)O)c2nc(N3CCO[C@@H](CO)C3)c(C#N)nc2c1` [Example 235B, 6-chloro-3-(((R)-1-(2-cyano-3-((R)-2-(hydroxymethyl)morpholino)-7-methylquinoxalin-5-yl)ethyl)amino)picolinic acid]: 1.8 nM, 262 nM and above 10000 nM.
For `Cc1cc([C@@H](C)Nc2ccc(Cl)nc2C(=O)O)c2nc(C3CCOCC3)c(C#N)nc2c1` [Example 233, (R)-6-chloro-3-((1-(2-cyano-7-methyl-3-(tetrahydro-2H-pyran-4-yl)quinoxalin-5-yl)ethyl)amino)picolinic acid], the IC50 is 0.17 nM in test [1], 84.4 nM in test [2] and above 10000 nM in test [3].
The matching figures for `Cc1cc([C@@H](C)Nc2ccc(Cl)nc2C(=O)O)c2nc(N3C[C@@H](F)[C@@H](C)C3)c(C#N)nc2c1` [Example 245, 6-chloro-3-(((R)-1-(2-cyano-3-((3S,4S)-3-fluoro-4-methylpyrrolidin-1-yl)-7-methylquinoxalin-5-yl)ethyl)amino)picolinic acid]: 1.1 nM, 63 nM and 5510 nM.
The matching figures for `Cc1cc([C@@H](C)Nc2ccc(Cl)nc2C(=O)O)c2nc(N3CC4(CCC4(F)F)C3)c(C#N)nc2c1` [Example 256, (R)-6-chloro-3-((1-(2-cyano-3-(5,5-difluoro-2-azaspiro[3.3]heptan-2-yl)-7-methylquinoxalin-5-yl)ethyl)amino)picolinic acid]: 0.11 nM, 310 nM and above 10000 nM.
The matching figures for `Cc1cc([C@@H](C)Nc2ccc(Cl)nc2C(=O)O)c2nc(N3C[C@H](F)C[C@@H]3C)c(C#N)nc2c1` [Example 246B, 6-chloro-3-(((R)-1-(2-cyano-3-((2S,4R)-4-fluoro-2-methylpyrrolidin-1-yl)-7-methylquinoxalin-5-yl)ethyl)amino)picolinic acid]: 1.8 nM, 61 nM and 4920 nM.
As to `COC[C@H]1CN(c2nc3c([C@@H](C)Nc4ccc(Cl)nc4C(=O)O)cc(C)cc3nc2C#N)CCO1` [Example 236B, 6-chloro-3-(((R)-1-(2-cyano-3-((R)-2-(methoxymethyl)morpholino)-7-methylquinoxalin-5-yl)ethyl)amino)picolinic acid], the IC50 is 3.6 nM in test [1], 217 nM in test [2] and above 10000 nM in test [3].
Taken in the same sequence, the figures for `Cc1cc([C@@H](C)Nc2ccc(Cl)nc2C(=O)O)c2nc(N3CC[C@@]4(CCCO4)C3)c(C#N)nc2c1` (single isomer, unassigned) [Example 253A] were 5.6 nM, 197 nM and 6850 nM.
Taken in the same sequence, the figures for `CO[C@H]1CCCN(c2nc3c([C@@H](C)Nc4ccc(Cl)nc4C(=O)O)cc(C)cc3nc2C#N)C1` [Example 196A, 6-chloro-3-(((R)-1-(2-cyano-3-((S)-3-methoxypiperidin-1-yl)-7-methylquinoxalin-5-yl)ethyl)amino)picolinic acid] were 1.2 nM, 62.1 nM and above 10000 nM.
Consider `Cc1cc([C@@H](C)Nc2ccc(Cl)nc2C(=O)O)c2nc(N3CCC[C@@H]([C@@H](C)O)C3)c(C#N)nc2c1` [Example 261D, 6-chloro-3-(((R)-1-(2-cyano-3-((R)-3-((R)-1-hydroxyethyl)piperidin-1-yl)-7-methylquinoxalin-5-yl)ethyl)amino)picolinic acid], for which the values for the IC50 in test [1], in test [2] and in test [3] were 1.2 nM, 76 nM and above 10000 nM, respectively.
On to `Cc1cc([C@@H](C)Nc2ccc(Cl)nc2C(=O)O)c2nc(N3C[C@@H](F)C[C@H]3C)c(C#N)nc2c1` [Example 246A, 6-chloro-3-(((R)-1-(2-cyano-3-((2R,4S)-4-fluoro-2-methylpyrrolidin-1-yl)-7-methylquinoxalin-5-yl)ethyl)amino)picolinic acid], for which the IC50 was 0.69 nM in test [1], 35 nM in test [2] and above 10000 nM in test [3].
The matching figures for `Cc1cc([C@@H](C)Nc2ccccc2C(=O)O)c2nc(N3CC(C)(C)C3)c(C#N)nc2c1` [Example 55, (R)-2-((1-(2-cyano-3-(3,3-dimethylazetidin-1-yl)-7-methylquinoxalin-5-yl)ethyl)amino)benzoic acid]: 21.6 nM, 422 nM and above 10000 nM.
